The CheMixHub viscosity set

Test: xn = mol fraction of the nth substance listed
Conditions: 101 kPa

CCCCCCCCN + COCCO
308.15 K
Conditions	viscosity [mPa·s]
x2 = 0.1894	1.275
x2 = 0.3445	1.474
x2 = 0.4739	1.614
x2 = 0.5835	1.667
x2 = 0.6777	1.67
x2 = 0.7592	1.609
x2 = 0.8307	1.556
x2 = 0.8937	1.482
x2 = 0.9498	1.379

OCCOCCO + COCCO
viscosity [mPa·s]
Conditions	293.15 K	298.15 K	303.15 K
x2 = 0.063	32.91	25.61	18.57
x2 = 0.1046	29.55	23.08	16.7
x2 = 0.1548	25.97	20.37	14.71
x2 = 0.1955	23.41	18.4	13.26
x2 = 0.2599	19.9	15.69	11.28
x2 = 0.3032	17.82	14.1	10.11
x2 = 0.3425	16.13	12.78	9.154
x2 = 0.3978	14.02	11.13	7.954
x2 = 0.4463	12.38	9.856	7.03
x2 = 0.4981	10.82	8.633	6.143
x2 = 0.5488	9.459	7.565	5.383
x2 = 0.5957	8.321	6.686	4.755
x2 = 0.6523	7.085	5.718	4.079
x2 = 0.6987	6.176	5.003	3.59
x2 = 0.7511	5.269	4.232	3.094
x2 = 0.8021	4.393	3.612	2.67
x2 = 0.8546	3.602	2.998	2.276
x2 = 0.8964	3.013	2.551	1.995
x2 = 0.9423	2.414	2.084	1.714

[Cl-].[Cl-].[Cl-].[Cl-].[Ge+4] + COc1ccccc1
viscosity [mPa·s]
Conditions	x2 = 0.2185	x2 = 0.3554	x2 = 0.4923	x2 = 0.6922	x2 = 0.8481
293.15 K	0.65	0.688	0.734	0.836	0.963
303.15 K	0.591	0.621	0.654	0.732	0.836
313.15 K	0.535	0.555	0.598	0.654	0.731
